Experimental data taken from patent publication US7829582B2, “Piperidinyl substituted pyrrolidinones as inhibitors of 11-beta-hydroxysteroid dehydrogenase 1” (Eli Lilly and Company, priority 2006, dated 2010).

Tests used:
11β-HSD1 [1] = biological target: T1, 11β-HSD1 (Homo sapiens, UniProt P28845); assay: Human aortic smooth muscle cell assay (cortisone to cortisol conversion); assay type: cell-based; conditions: primary human aortic smooth muscle cells (AoSMC), hTNFα-induced 11β-HSD1, cortisol measured by immunoassay
T1 construct: endogenous in cells; host or cells: primary human aortic smooth muscle cells (AoSMC), induced with hTNFα
T1 sequence (P28845 whole entry): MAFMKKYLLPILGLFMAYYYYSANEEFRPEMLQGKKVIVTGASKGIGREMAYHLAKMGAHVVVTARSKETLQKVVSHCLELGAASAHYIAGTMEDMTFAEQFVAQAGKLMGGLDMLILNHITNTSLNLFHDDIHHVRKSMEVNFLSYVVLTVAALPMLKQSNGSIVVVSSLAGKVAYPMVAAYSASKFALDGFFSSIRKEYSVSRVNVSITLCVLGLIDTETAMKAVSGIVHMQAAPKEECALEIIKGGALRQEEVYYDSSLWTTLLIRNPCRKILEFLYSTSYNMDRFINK
Procedure: Human Aortic Smooth Muscle Cell Assay
Primary human aortic smooth muscle cells (AoSMC) are cultured in 5% FBS growth medium to a passage number of 6, then pelleted by centrifugation and resuspended at a density of 9×10^4 cells/mL in 0.5% FBS assay medium containing 12 ng/mL hTNFα to induce expression of 11β-HSD1. Cells are seeded into 96-well tissue culture assay plates at 100 μL/well (9×10^3 cells/well) and incubated for 48 hours at 37° C., 5% CO2. Following induction, cells are incubated for 4 hours at 37° C., 5% CO2 in assay medium containing test compounds then treated with 10 μL/well of 10 μM cortisone solubilized in assay medium, and incubated for 16 hours at 37° C., 5% CO2. Medium from each well is transferred to a plate for subsequent analysis of cortisol using a competitive fluorescence resonance time resolved immunoassay. In solution, an allophycocyanin (APC)-cortisol conjugate and free cortisol analyte compete for binding to a mouse anti-cortisol antibody/Europium (Eu)-anti mouse IgG complex. Higher levels of free cortisol result in diminishing energy transfer from the Europium-IgG to the APC-cortisol complex resulting in less APC fluorescence. Fluorescent intensities for Europium and APC are measured using a LJL Analyst AD. Europium and APC excitation is measured using 360 nm excitation and 615 nm and 650 nm emission filters respectively. Time resolved parameters for Europuium were 1000 μs integration time with a 200 μs delay. APC parameters are set at 150 μs integration time with a 50 μs delay. Fluorescent intensities measured for APC are modified by dividing by the Eu fluorescence (APC/Eu). This ratio is then used to determine the unknown cortisol concentration by interpolation using a cortisol standard curve fitted with a 4-parameter logistic equation. These concentrations are then used to determine compound activity by plotting concentration versus % inhibition, fitting with a 4-parameter curve and reporting the IC50.

11β-HSD1 [2] = biological target: T2, 11β-HSD1 (Mus musculus, UniProt P50172); assay: Acute in vivo cortisone conversion assay; conditions: male C57BL/6 mice, oral dose 10 mg/kg, cortisone challenge 16 hours post dose, serum cortisol by LC-MS/MS
T2 construct: tissue Harlan Sprague Dawley; host or cells: whole animal, male C57BL/6 mice; serum cortisol read-out
T2 sequence (P50172 whole entry): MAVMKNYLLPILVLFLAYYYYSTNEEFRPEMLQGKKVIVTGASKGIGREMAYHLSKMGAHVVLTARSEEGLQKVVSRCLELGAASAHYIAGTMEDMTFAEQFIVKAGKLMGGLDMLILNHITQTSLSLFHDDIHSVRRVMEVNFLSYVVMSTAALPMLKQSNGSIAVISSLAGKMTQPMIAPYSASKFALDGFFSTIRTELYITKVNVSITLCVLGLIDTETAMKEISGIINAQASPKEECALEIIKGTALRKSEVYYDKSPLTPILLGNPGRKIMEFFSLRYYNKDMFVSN
Procedure: Acute In Vivo Cortisone Conversion Assay
In general, compounds are dosed orally into mice, the mice are challenged with a subcutaneous injection of cortisone at a set timepoint after compound injection, and the blood of each animal is collected some time later. Separated serum is then isolated and analyzed for levels of cortisone and cortisol by LC-MS/MS, followed by calculation of mean cortisol and percent inhibition of each dosing group. Specifically, male C57BL/6 mice are obtained from Harlan Sprague Dawley at average weight of 25 grams. Exact weights are taken upon arrival and the mice randomized into groups of similar weights. Compounds are prepared in 1% w-w HEC, 0.25% w-w polysorbate 80, 0.05% w-w Dow Corning antifoam #1510-US at various doses based on assumed average weight of 25 grams. Compounds are dosed orally, 200 μl per animal, followed by a subcutaneous dose, 200 μl per animal, of 30 mg/kg cortisone at 1 to 24 hours post compound dose. At 10 minutes post cortisone challenge, each animal is euthanized for 1 minute in a CO2 chamber, followed by blood collection via cardiac puncture into serum separator tubes. Once fully clotted, tubes are spun at 2500×g, 4° C. for 15 minutes, the serum transferred to wells of 96-well plates (Corning Inc, Costar #4410, cluster tubes, 1.2 ml, polypropylene), and the plates are frozen at −20° C. until analysis by LC-MS/MS. […]

| IC50 (11β-HSD1 [1]) [µM] | % Inhibition after 16 hours (dose of 10 (mg/kg)) (11β-HSD1 [2]) [%] | Structure (SMILES) |
| --- | --- | --- |
| 0.085 |  | CS(=O)(=O)N1CCC(N2CC[C@@H](Cc3c(Cl)cc(-c4ccc(F)cc4)cc3Cl)C2=O)CC1 [Example 1, (R)-3-(3,5-Dichloro-4′-fluoro-biphenyl-4-ylmethyl)-1-(1-methanesulfonyl-piperidin-4-yl)-pyrrolidin-2-one] |
| 0.159 |  | O=C(Nc1ccccc1)N1CCC(N2CC[C@@H](Cc3c(Cl)cc(-c4ccc(F)cc4)cc3Cl)C2=O)CC1 [Example 8, 4-[(R)-3-(3,5-Dichloro-4′-fluoro-biphenyl-4-ylmethyl)-2-oxo-pyrrolidin-1-yl]-piperidine-1-carboxylic acid phenylamide] |
| 0.231 | 92 | COC(=O)N1CCC(N2CC[C@@H](Cc3c(Cl)cc(-c4ccc(C(=O)N5CCC(C(F)(F)F)CC5)cc4)cc3Cl)C2=O)CC1 [Example 4, 4-{(R)-3-[3,5-Dichloro-4′-(4-trifluoromethyl-piperidine-1-carbonyl)-biphenyl-4-ylmethyl]-2-oxo-pyrrolidin-1-yl}-piperidine-1-carboxylic acid methyl ester] |
| 0.0845 |  | COC(=O)N1CCC(N2CC[C@@H](Cc3c(Cl)cc(-c4ccc(F)cc4)cc3Cl)C2=O)CC1 [Example 3, 4-[(R)-3-(3,5-Dichloro-4′-fluoro-biphenyl-4-ylmethyl)-2-oxo-pyrrolidin-1-yl]-piperidine-1-carboxylic acid methyl ester] |
| 0.073 | 65 | CNC(=O)N1CCC(N2CC[C@@H](Cc3c(Cl)cc(-c4ccc(F)cc4)cc3Cl)C2=O)CC1 [Example 6, 4-[(R)-3-(3,5-Dichloro-4′-fluoro-biphenyl-4-ylmethyl)-2-oxo-pyrrolidin-1-yl]-piperidine-1-carboxylic acid methylamide] |
